Experimental data published in patent publication US20260022246A1, “COLORING AGENT COMPOSITION, FILM, OPTICAL FILTER, AND NEAR INFRARED ABSORBING COMPOUND” (FUJIFILM Corporation, priority 2023, published 2026).

How the values were obtained:
Format in all cases: physicochemical
[1] = Evaluation of kneading: transmittance at 1,150 nm of melt-kneaded resin film; settings: kneaded with resin under the thermal conditions
Experimental: A resin composition, which was a kneaded material of the specific compound or the comparative compound and a resin, was prepared, and the following kneading evaluation was performed.
The specific compounds and comparative compounds shown in Table 3 below were weighed in the contents shown in Table 3, and a sample obtained by shaking and mixing 12.0 g of the resin shown in Table 3 was prepared. A polycarbonate resin (indicated as Polycarbonate in Table 3), a polystyrene resin, and an acrylic resin were used as the resin. In Table 3, the polycarbonate resin is indicated as Polycarbonate, the polystyrene resin is indicated as Polystyrene, and the acrylic resin is indicated as Acrylic.
The obtained sample was put into a supply port of a biaxial kneader (Labo Plastomill, manufactured by Toyo Seiki Seisaku-sho, Ltd.) and subjected to melt-kneading to obtain a resin composition as a kneaded material. The obtained resin composition was pressed using a heat press machine to obtain a resin film having a thickness of 0.15 mm.
In a case where a polycarbonate resin (SD PORYCA (registered trademark) 301-10, manufactured by Sumika Polycarbonate Co., Ltd.) was used as the resin, the melt-kneading temperature was set to 260° C. and the hot press temperature was set to 230° C.
In a case where a polystyrene resin (manufactured by Sigma-Aldrich Co. LLC) was used as the resin, the melt-kneading temperature was set to 200° C. and the hot press temperature was set to 180° C.
In a case where an acrylic resin (G1000, manufactured by Kuraray Co., Ltd.) was used as the resin, the melt-kneading temperature was set to 180° C. and the hot press temperature was set to 160° C.
A transmittance of the obtained resin film at a wavelength of 1,150 nm was measured with a spectrophotometer, and the measured value was evaluated according to the following standard. In Table 3, it is described in “Evaluation of transmittance at wavelength of 1150 nm”. As the transmittance is lower, the near infrared blocking property is better. […]

[2] = Evaluation of heat stability of polystyrene resin film (hot plate 180° C., 5 minutes); settings: for Heat stability of resin composition: polystyrene resin film on glass, hot plate 180° C. for 5 minutes, absorbance reduction rate at λmax
Experimental: 30 mg of each of Exemplary Compounds and the comparative compounds described in the tables was dissolved in 8.9 g of methyl ethyl ketone and 1.1 g of a polystyrene resin (manufactured by Sigma-Aldrich Co. LLC) to prepare a resin composition.
The obtained resin composition was spin-coated on a glass substrate to form a coating film, and the obtained coating film was dried at 60° C. for 2 minutes to produce a resin film. […]
• A: absorbance reduction rate of Amax was less than 5%. • B: absorbance reduction rate of Amax was 5% or more and less than 10%. • C: absorbance reduction rate of Amax was 10% or more and less than 50%. • D: absorbance reduction rate of Amax was 50% or more. • X: solubility was insufficient, so that the film cannot be produced, which was not evaluable.

[3] = Evaluation of solubility in methyl ethyl ketone (MEK); set-up: key to Solubility in solvent: A: 1 g or more of the compound was stably dissolved in 300 g of MEK; B: 1 g was not dissolved in 300 g of MEK; X: decomposition was observed by measuring the absorption spectrum after the dissolution; settings: for Solubility in solvent: stirred at room temperature for 30 minutes
Experimental: For each of Exemplary Compounds shown in Tables 1 and 2, a predetermined amount of the compound was added to a solvent of methyl ethyl ketone (MEK), and solubility was evaluated according to the following standard by stirring the mixture at room temperature for 30 minutes.
• A: 1 g or more of the compound was stably dissolved in 300 g of MEK. • B: 1 g was not dissolved in 300 g of MEK. • X: decomposition was observed by measuring the absorption spectrum after the dissolution.

[4] = Evaluation of absorption spectrum (maximal absorption wavelength in chloroform solution); settings: for λmax (maximal absorption wavelength): chloroform solution, 3.0×10^−5 mol/L, 1 mm quartz cell; for Near infrared absorbing property: grade of λmax in chloroform solution
Experimental: The specific compound is diluted with chloroform to a concentration of […], and an absorbance of the obtained sample solution is measured with a spectrophotometer (UV-3600 Plus, manufactured by Shimadzu Corporation) using a 1 mm quartz cell. A maximal absorption wavelength (Amax) is measured from an absorption spectrum of the sample solution.
For each of Exemplary Compounds shown in Tables 1 and 2, a sample solution was prepared by diluting the compound with chloroform to a concentration of 3.0×10^−5 mol/L, and near infrared absorbability was evaluated.
For each sample solution, an absorbance was measured in a 1 mm quartz cell using a spectrophotometer (UV-3600 Plus, manufactured by Shimadzu Corporation).
A maximal absorption wavelength (Amax) was measured from the absorption spectrum of each sample solution. The results are shown in Tables 1 and 2, and the wavelength of Amax was evaluated according to the following standard.
• A: Amax was 1,150 nm or more. • B: Amax was less than 1,150 nm.

Row | heat stability (in words, kneading evaluation) [1] | stability after dissolving in a solvent (measurement of the absorption spectrum) [3] | λmax (maximal absorption wavelength) [4] [nm] | Near infrared absorbing property [4] | heat stability of the resin composition (in words) ([2]; polystyrene resin film) | absorbance at the maximal absorption wavelength on heating ([2]; resin film, heating at 130° C. as printed) | solubility in a solvent (in words) [3] | Structure (SMILES) | Heat stability of resin composition [2] | Solubility in solvent [3]
1 | low | decomposed | 1051 | B (Amax was less than 1,150 nm) |  |  |  | CCCCN(CCCC)c1ccc(N(c2ccc(N(CCCC)CCCC)cc2)c2ccc([N+](=C3C=CC(=[N+](c4ccc(N(c5ccc(N(CCCC)CCCC)cc5)c5ccc(N(CCCC)CCCC)cc5)cc4)c4ccc(N(c5ccc(N(CCCC)CCCC)cc5)c5ccc(N(CCCC)CCCC)cc5)cc4)C=C3)c3ccc(N(c4ccc(N(CCCC)CCCC)cc4)c4ccc(N(CCCC)CCCC)cc4)cc3)cc2)cc1.[F][Sb-]([F])([F])([F])([F])[F].[F][Sb-]([F])([F])([F])([F])[F] [Comparative compound 3, reference compound] | D (absorbance reduction rate of Amax was 50% or more) | X
2 | low |  | 1100 | B (Amax was less than 1,150 nm) | low | significantly reduced | favorable | CCCCN(CCCC)c1ccc([N+](=C2C=CC(=[N+](c3ccc(N(CCCC)CCCC)cc3)c3ccc(N(CCCC)CCCC)cc3)C=C2)c2ccc(N(CCCC)CCCC)cc2)cc1.[F][Sb-]([F])([F])([F])([F])[F].[F][Sb-]([F])([F])([F])([F])[F] [Comparative compound 4, reference compound] | D (absorbance reduction rate of Amax was 50% or more) | A (1 g or more of the compound was stably dissolved in 300 g of MEK)
